Reference: patent US6235891A, “Glucocorticoid receptor agonist and decreased PP5” (South Alabama Medical Science Foundation, priority 1999, dated 2001)

How the values were obtained:
PP5 mRNA [1] = assay: Northern blot analysis of PP5 mRNA expression in A549 cells; format: cell-based, human; conditions: doses of 25 to 500 nM, read-out: IC50 for reduction of PP5 mRNA levels
Text: The oligonucleotides shown in Table 1 were designed using the Genbank sequences HSSERTHRP (Genbank accession number X92121), HSRNAPPP5 (Genbank accession number X89416) and PPP5C (Genbank accession number U25174), synthesized and tested for inhibition of PP5 mRNA expression in A549 cells using a Northern blot assay. All oligonucleotides shown in Table 1 are chimeric oligonucleotides with central 2'-deoxy "gaps," which have phosphorothioate backbones, flanked on both sides by 2'-methoxyethoxy (2'-MOE) "wings" (shown in bold), which have phosphodiester backbones. All cytosines in the 2'-MOE wings are 5-methylcytosines.
In the initial screen, A549 cells were treated with oligonucleotides at a concentration of 300 nM oligonucleotide for four hours in the presence of […] lipofectin. Results were normalized and expressed as a percent of control. The effect of each oligonucleotide on levels of PP5 mRNA, expressed as approximate percent inhibition compared to control, is shown in Table 1. In this initial screen, oligonucleotides giving a reduction of PP5 mRNA of approximately 50% or greater were considered active. […] These sequences (SEQ ID NO: 1, 2, 3, 4, 6, 7 and 12, respectively, SEQ ID Nos shown in bold in Table 1) are therefore preferred.
These oligonucleotides were tested for their ability to reduce PP5 mRNA levels in A549 cells, using oligonucleotide doses of 25 to 500 nM.
The human lung tumor cell line A549 was obtained from the American Type Culture Collection (Rockville Md.) and were grown in DMEM (Gibco BRL, Gaithersburg Md.), supplemented with 10% fetal calf. Cells were seeded on 60 mm plates. When they reached 70% confluency, they were washed with DMEM and 1 ml of DMEM containing 15 μg/ml DOTMA/DOPE (Lipofectin®, GIBCO-BRL) and oligonucleotide at desired concentration was added. Duplicate dishes were used for each treatment condition. After 4 hours of treatment at 37°, cells were washed and cultured in fresh DMEM containing 10% fetal bovine serum for an additional 17 hours. Cells were then harvested and total RNA was extracted with TRIzol Reagent (GIBCO-BRL) according to manufacturer's protocol. Total RNA (20 μg) was fractionated on a 1% agarose gel containing formaldehyde, and transferred to a DURLON-UV (Stratagene) nylon membrane. Following UV crosslinking, the filters were hybridized with the appropriate protein phosphatase probe. The ^32 P-labeled human PP cDNA probes are generated with DECAPrime® DNA Labeling Kit (Ambion) according to the manufacturer's protocol. Hybridization was performed in a hybridization solution containing 50% formamide at 42° for 16 hours. This was followed by two low stringency washes (2×SSC) at room temperature and two high stringency washes (0.1×SSC/0.5% SDS) at 55° C. Hybridization signals were visualized by autoradiography, and filters were then stripped and reprobed with a ^32 P-labeled glyceraldehyde-3-phosphate dehydrogenase (GAPDH) probe to confirm equal loading. The densities of hybridization signals were measured with the NIH Image program (ImagePC).
The cells were harvested, and total RNA was extracted with TRIzol® Reagent according to the methods of the manufacturer. Total RNA (20 μg) was fractionated on 1% agarose gels containing formaldehyde and transferred to DURLON-UV nylon membranes (Stratagene). Following UV cross-linking, the filters were hybridized with a [α^32 P]probe for human PP5. The human PP5 cDNA probe was generated from the full length coding region of PP5 and [α^32 P]-dATP was labeled with DECAprime® DNA Labeling Kit according to the manufacturer's protocol. Hybridization was performed in the presence of 50% formamide, 0.1 M Pipes, 0.8 M NaCl, 5×Denhardt's solution, 100 μg/ml denatured herring sperm DNA, 1×10^6 cpm/ml [α-^32 P]-labeled probe and 10% dextran sulfate at 42° C. for 16 hours. Following hybridization, the membrane was subjected to two low stringency washes (2×SSC) at room temperature and then two high stringency washes (0.1×SSC/0.5% SDS) at 55° C. […]

PP5 mRNA [2] = assay: as above; format: cell-based, human; conditions: dexamethasone 0-100 nM, 24 hours

Compound | IC50 (PP5 mRNA [1]) [nM] | Expression of PP5 mRNA (PP5 mRNA [2])
ISIS 15534: chimeric PP5 antisense oligonucleotide, P=O wings, P=S deoxy gap; GGGCCCTATTGCTTGAGTGG, SEQ ID NO: 12 (sugars by position and backbone not given here; chimeric, phosphodiester wings, phosphorothioate deoxy gap) | ~135 | 
C[C@@H]1C[C@H]2[C@@H]3CCC4=CC(=O)C=C[C@]4(C)[C@@]3(F)[C@@H](O)C[C@]2(C)[C@@]1(O)C(=O)CO [dexamethasone, reference compound] |  | does not appear to change
